From PMC10222270, “Natural Product-Based Screening for Lead Compounds Targeting SARS CoV-2 M^pro” (Pharmaceuticals, 2023) come the findings set out here.

Structures are written as SMILES. Where “and” joins values, the source holds several entries; their conditions need not be identical. Equal entries are not always repeated.

For test [1], the target named is T1, SARS CoV-2 M^pro (Severe acute respiratory syndrome coronavirus 2, UniProt P0DTD1).
T1 construct: The main protease (M^pro) is a part of the polyprotein chain, also named 3C-like protease; SUMO (cleaved yes); His; made in house; host or cells: Escherichia coli BL21(DE3)
The experiment in a line: biochemical. Type of test: biochemical. As to conditions: for inhibition at 80 µM: read-out: Inhibition%(80μM).

Test [2] addresses T1, SARS CoV-2 M^pro. In words: Surface plasmon resonance (SPR) binding to biotinylated M^pro. As to conditions: SPR, single concentration 200 μM.
Setting [3] is: 0.02%(v/v) Triton X−100 in buffer.

Turning to `CC(=O)OCCc1ccc(O)c(O)c1` [hydroxytyrosol acetate, Hydroxytyrosol Acetate], at SARS CoV-2 M^pro [1], the “Inhibition%(80μM)” value is 103.09% and 102.91%; the inhibition at 80 µM is 103%. The IC50 against SARS CoV-2 M^pro [1] (setting [3]) stood at 3.78 ± 0.453 µM. On SARS CoV-2 M^pro [1] (Without Triton X−100), this compound came in with an IC50 of 3.85 ± 0.576 µM. For the same compound, at SARS CoV-2 M^pro [2], the “binding trend to M^pro” value is reported as “no binding trends”.
Take `COc1cc(C(=S)N2CCOCC2)ccc1O` [vanitiolide, Vanitiolide]: the “Inhibition%(80μM)” value at SARS CoV-2 M^pro [1] was 99.16% and 98.95%. Further, the IC50 at SARS CoV-2 M^pro [1] (setting [3]) was 1.42 ± 0.076 µM; against SARS CoV-2 M^pro [1] (Without Triton X−100), 2.84 ± 0.225 µM. Also, on SARS CoV-2 M^pro [1], the inhibition at 80 µM was determined as 99.1%. The “binding trend to M^pro” value on SARS CoV-2 M^pro [2] was “no binding trends”.

Broadly, the IC50 is the point on the concentration scale where inhibition reaches its midpoint. Read a high IC50 as weaker potency in that assay. One may read the inhibition as the relative decrease from the control value, in per cent.
